# Experiments:
# his-tagged FABP4 [1] = target: T1, his-tagged FABP4 (Homo sapiens, UniProt P15090); test: Competition binding assay with 1,8-ANS as tracer
# T1 construct: purchased Cayman Chemical Company
# Protocol: In accordance with previous reports, competition binding experiments were performed using 8-anilino-1-naphthalene sulfonic acid (1,8-ANS) as the tracer. Briefly, a mixture containing 0.12 ml phosphate buffer (50 mM, pH = 7.4), 0.03 ml TAP1 (2.6 mM–300 nM) in DMSO, 0.075 ml 1,8-ANS (24 nM) in phosphate buffer (0.2% ethanol, v/v) and 0.075 ml his-tagged FABP4 (1 µM) in phosphate buffer was incubated at room temperature for 5 min. […] The inhibition constants (K i) were calculated using the Cheng-Prusoff equation: K i = IC50/(1+[L]/K d), where [L] is the 1,8-ANS concentration and K d is the 1,8-ANS dissociation constant.
# [2] = tested on: differentiated THP-1 cells; test: Cell uptake study and inhibition assay; assay type: cell-based, Human; details: 4 °C, 3 hr
# Protocol: Human monocytic leukemia THP-1 cells were obtained from ATCC and rat glioma C6 cells were from the Health Science Research Resources Bank. THP-1 cells were cultured in Gibco RPMI 1640 medium (Nissui Pharmaceutical Co., Ltd.) supplemented with 10% heat-inactivated fetal bovine serum (Nichirei Bioscience Inc.), 50 U/ml penicillin and 50 µg/ml streptomycin (Nacalai Tesque, Inc.) at 37 °C in 5% CO2. C6 cells were cultured in McCoy's 5A Modified Medium supplemented with 10% heat-inactivated fetal bovine serum, 50 U/ml penicillin and 50 µg/ml streptomycin at 37 °C in 5% CO2. For cell uptake assays, THP-1 monocytes were differentiated into macrophages by incubation with 100 nM phorbol 12-myristate 13-acetate for 24 hr.
# For the cell uptake study, tubes were pre-incubated with 50 mg/ml skim milk in PBS (-) at 4 °C for 3 hr. Then, 0.4 ml of differentiated THP-1 cells (1.0×10^6 cells/tube) in PBS (-) and 0.05 ml [^125I]TAP1 in PBS (-) (0.008 MBq, 5% ethanol, v/v) were added to the tubes, and the cells were incubated at 4 °C for 3 hr. […] The radioactivity of the tubes was measured with a well-type γ-counter. […] Binding ratios were calculated as (radioactivity in tubes)/(total applied radioactivity)/(protein abundance) ×100 (%Dose/mg protein). […] After incubation at 4 °C for 3 hr, the radioactivity measurement and calculation of the binding ratio were performed as described above. […]
# [3] = tested on: 3T3-L1 preadipocytes and differentiated adipocytes; test: Cell uptake study in adipocytes and preadipocytes; assay type: cell-based, Murine; details: concentration-dependent, 0-100 μM
# Protocol: Murine 3T3-L1 preadipocytes were obtained from ATCC and cultured in Dulbecco's Modified Eagle Medium (Nissui Pharmaceutical Co., Ltd.) supplemented with 10% heat-inactivated fetal bovine serum, 50 U/ml penicillin and 50 μg/ml streptomycin at 37 °C in 5% CO2. For cell uptake assay, differentiation of 3T3-L1 cells was performed as described previously. Briefly, two days after confluence, the medium was replaced with DMEM containing 10% FBS and inducers ([…], 10 μg/ml insulin, 0.5 mM 3-isobutyl-1-methylxanthine and 10 μM pioglitazone hydrochloride) for 2 days. The medium was then changed to DMEM supplemented with 10% FBS, 10 μg/ml insulin and 10 μM pioglitazone hydrochloride, and then incubated for 2 days. Then, the medium was changed to DMEM supplemented with 10% FBS and 10 μM pioglitazone hydrochloride every other day. After 8-10 days, the differentiated adipocytes were used for experiments.
# For the cell uptake study using adipocytes, the medium of 24-well plate, in which the differentiated adipocytes or undifferentiated 3T3-L1 cells are cultured, was removed. […] Following the measurement of the radioactivity of collected cell lysate with a well-type γ-counter, protein determination was performed. […] Binding ratios were calculated as (radioactivity in collected cells)/(total applied radioactivity)/(protein abundance) x 100 (%Dose/mg protein).
# [4] = Parallel artificial membrane permeation assay (PAMPA); assay type: in vitro ADME; details: room temperature, read-out: permeability (PAMPA)
# Protocol: The permeability of TAP1 was measured using a pre-coated PAMPA plate system (BD Biosciences) following the manufacturer's procedures. Briefly, TAP1 (100–200 µM, 0.2 ml) was added to donor plate and PBS (-) (0.2 ml) was added to the acceptor plate in the PAMPA plate assembly. After coupling both plates together and incubating at room temperature for 5 hr, 0.15 ml of the sample was obtained from each plate and 0.15 ml of the original compound solution was also obtained. Then, the absorbance of each sample was measured at 280 nm. The permeability was calculated as: Pe (cm/s) = (−ln[1−CA/Cequilibrium])/St (1/VD+1/VA) and Cequilibrium = [CDVD+CAVA]/(VD+VA). CD = C0 (AD−Abuffer)/(A0−Abuffer) and CA = C0 (AA−Abuffer)/(A0−Abuffer). C0 is the concentration of the start sample and A0, Abuffer, AD and AA are absorbances of the starting sample, buffer, donor and acceptor, respectively. VD and VA are the donor and acceptor volumes, respectively. S is the membrane area and t is the incubation time.
# his-tagged FABP4 [5] = target: T1, his-tagged FABP4; test: Selectivity binding assay with FABP immobilized on Ni-NTA magnetic agarose beads
# Protocol: For the selectivity binding assay, his-tagged FABP3 (0.75 mg/ml), FABP4 (0.75 mg/ml) and FABP5 (0.70 mg/ml) in 50 mM phosphate buffer containing 100 mM NaCl (20% glycerol, v/v, pH = 7.2) were used. Immobilization was performed following the manufacturer's procedures. Each solution of his-tagged FABP3 ([…], 1.5 µg), FABP4 (0.002 ml, 1.5 µg) or FABP5 (0.002 ml, 1.4 µg) was incubated with 0.02 ml Ni-NTA Magnetic Agarose Beads (Qiagen) and 0.5 ml protein binding buffer (50 mM NaH2PO4, 300 mM NaCl, 10 mM imidazole, pH = 8.0) at room temperature for 1 hr. After supernatant removal, protein binding buffer with 1% BSA was added, and the mixture was incubated at room temperature for 30 min. After removal of the supernatant, 0.4 ml of interaction buffer (50 mM NaH2PO4, 300 mM NaCl, 10 mM imidazole, and 0.005% Tween, v/v, pH = 8.0) and 0.05 ml [^125I]TAP1 (0.01 MBq) in interaction buffer (5% ethanol, v/v) were added. For measurement of non-specific binding, 0.05 ml of nonradioactive TAP1 in interaction buffer (5% ethanol, v/v, 11.3 µM) was added with the [^125I]TAP1. After incubation at room temperature for 2 hr, the supernatants were removed, and the beads washed with interaction buffer (5% ethanol, v/v). The radioactivity of beads in the tubes was measured with a well-type γ-counter (1480 Wizard3, PerkinElmer Japan Co., Osaka, Japan). Binding ratios were calculated as (radioactivity of beads)/(total applied radioactivity)/(protein abundance on beads)×100 (%Dose/µg protein).
# T1 sequence (P15090 whole entry): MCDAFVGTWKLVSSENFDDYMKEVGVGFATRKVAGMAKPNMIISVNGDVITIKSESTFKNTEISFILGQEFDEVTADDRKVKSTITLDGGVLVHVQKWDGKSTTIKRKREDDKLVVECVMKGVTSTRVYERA
Structure (SMILES),Kd (his-tagged FABP4 [1]),inhibition of [^125I]TAP1 uptake into differentiated THP-1 cells [2],inhibition of [^125I]TAP1 uptake into adipocytes [3],"Ki (his-tagged FABP4 [1]; competition with 1,8-ANS, FABP4)",Papp at 5 h [4],FABP4 binding relative to FABP3 (his-tagged FABP4 [5]; FABP4 over FABP3),FABP4 binding relative to FABP5 (his-tagged FABP4 [5]; FABP4 over FABP5)
"O=S(=O)(O)c1cccc2cccc(Nc3ccccc3)c12 [1,8-ANS, 8-anilino-1-naphthalene sulfonic acid, reference compound]",1200 nM,–,–,–,–,–,–
"CCc1c(-c2ccccc2)c(-c2ccccc2)nn1-c1ccccc1-c1cccc(OCC(=O)O)c1 [BMS309403, reference compound]",–,significantly inhibited,significantly inhibited,–,–,–,–
"O=c1cc(COc2cccc(I)c2)[nH]c2nc(-c3ccccc3)nn12 [TAP1, 5-{(3-Iodophenoxy)methyl}-2-phenyl-[1], [2], [4]triazolo[1,5-a]pyrimidin-7(4H)-one]",–,significantly inhibited,–,44.5 ± 9.8 nM,12.6 ± 2.9 ×10⁻⁶ cm/s,more than 10 fold,more than 10 fold

# — publication PMC3986099, “Development of a Radioiodinated Triazolopyrimidine Probe for Nuclear Medical Imaging of Fatty Acid Binding Protein 4” (PLoS ONE, 2014)
